According to patent publication US10905736B2, “Ezetimibe-associated ApoA-I mimetic peptides showing enhanced synergism” (The Regents of the University of California, priority 2016, dated 2021):
“Also recorded” adds a separate entry of the source.

Key:
[1] = tested on: Niemann-Pick C1-like 1 (NPC1L1) protein; conditions: by targeting NPC1L1; cited from earlier work
LDLR null mice [2] = experiment: Plasma hydroxyeicosatetraenoic acid (HETE) levels in LDLR null mice fed Western diet for two weeks; type: in vivo, mouse; conditions: female LDLR null mice age 5-8 months, n=20 per group, WD two weeks, Tg6F 0.06% of diet, Ezetimibe 10 mg/kg/day
Protocol: The plasma from the mice in FIG. 1 was analyzed for 5-HETE as described (see, e.g., Navab et al. (2012) J. Lipid Res., 53: 437-445).
Female LDLR null mice age 5-8 months (n=20 per group) were fed standard mouse chow (Chow) or a Western diet high in cholesterol and fat (WD) or were fed WD+0.06% by weight of a freeze-dried concentrate of transgenic tomatoes expressing the apoA-I mimetic peptide 6F, which was prepared as previously described (see, e.g., Chattopadhyay et al. (2015) Pharma. Res. Per. 3: e00154; Chattopadhyay et al. (2016) J. Lipid Res. 57: 832-847; PCT Pub. Nos: WO 2013/148214 (PCT/US2013/031037), WO 2015/175968 (PCT/US2015/031134)) (Tg6F), or the mice were fed WD with Ezetimibe added to give a daily dose of 10 mg/kg body weight/day (WD+Ezetimibe), or the mice were fed WD with Tg6F added at 0.06% by weight plus Ezetimibe (each added separately to the diet) to give a daily dose of Ezetimibe of 10 mg/kg body weight; the Tg6F and Ezetimibe were mixed into WD as described previously (Chattopadhyay et al. (2016) J. Lipid. Res. 57: 832-847) (Combined Formulation), or the mice were fed WD to which was added ezetimibe-associated transgenic 6F peptide (Ez-tg6F) at 0.06% Tg6F by weight containing sufficient Ezetimibe to give a daily dose of 10 mg/kg body weight/day that was prepared as described herein. Specifically, the ezetimibe-associated Tg6F peptide (Ez-Tg6F) was made by adding the ezetimibe directly to a solution of ethyl acetate 5% acetic acid that had been incubated overnight at room temperature with freeze-dried tomato powder obtained from transgenic tomatoes expressing the 6F peptide, and which had been removed to a separate vessel as described previously (see, e.g., Chattopadhyay et al. (2015) Pharma. Res. Per. 3: e00154; Chattopadhyay et al. (2016) J. Lipid. Res. 57: 832-847) prior to addition of the ezetimibe. […] After feeding the diets for two weeks, the mice were bled and total plasma cholesterol levels were determined as described (Id.). […]

LDLR null mice [3] = experiment: Plasma Serum Amyloid A (SAA) levels in LDLR null mice fed Western diet for two weeks; type: in vivo, mouse; conditions: statement over the experiments of Example 3 (single agents four out of four, Combined Formulation three out four, Novel Method three out three experiments)
Protocol: The plasma from the mice in FIG. 1 was analyzed for SAA as described as described (see, e.g., Chattopadhyay et al. (2015) Pharma. Res. Per. 3: e00154; Chattopadhyay et al. (2016) J. Lipid. Res. 57: 832-847).
Female LDLR null mice age 5-8 months (n=20 per group) were fed standard mouse chow (Chow) or a Western diet high in cholesterol and fat (WD) or were fed WD+0.06% by weight of a freeze-dried concentrate of transgenic tomatoes expressing the apoA-I mimetic peptide 6F, which was prepared as previously described (see, e.g., Chattopadhyay et al. (2015) Pharma. Res. Per. 3: e00154; Chattopadhyay et al. (2016) J. Lipid Res. 57: 832-847; PCT Pub. Nos: WO 2013/148214 (PCT/US2013/031037), WO 2015/175968 (PCT/US2015/031134)) (Tg6F), or the mice were fed WD with Ezetimibe added to give a daily dose of 10 mg/kg body weight/day (WD+Ezetimibe), or the mice were fed WD with Tg6F added at 0.06% by weight plus Ezetimibe (each added separately to the diet) to give a daily dose of Ezetimibe of 10 mg/kg body weight; the Tg6F and Ezetimibe were mixed into WD as described previously (Chattopadhyay et al. (2016) J. Lipid. […] After feeding the diets for two weeks, the mice were bled and total plasma cholesterol levels were determined as described (Id.). […]

In the case of `O=C1[C@H](CC[C@H](O)c2ccc(F)cc2)[C@@H](c2ccc(O)cc2)N1c1ccc(F)cc1` [Ezetimibe, (3R,4S)-1-(4-fluorophenyl)-3-[(3S)-3-(4-fluorophenyl)-3-hydroxypropyl]-4-(4-hydroxyphenyl)azetidin-2-one], the “transintestinal cholesterol efflux (TICE)” value [1] is given as “promotes TICE”, the “plasma 5-HETE levels” value (LDLR null mice [2]; FIG. 7-8 / FIG. 17 G-H) is given as “equally effective; also recorded: significantly decreased plasma levels of 5-HETE” and the “plasma 12-HETE levels” value (LDLR null mice [2]; FIG. 9-10 / FIG. 17 I-J) is given as “without effect; also recorded: failed to significantly decrease plasma 12-HETE and 15-HETE levels; also recorded: did not significantly alter plasma 12-HETE or 15-HETE levels”. For the same compound, the “plasma 15-HETE levels” value (LDLR null mice [2]; FIG. 11-12 / FIG. 17 K-L) was “without effect; also recorded: failed to significantly decrease plasma 12-HETE and 15-HETE levels; also recorded: did not significantly alter plasma 12-HETE or 15-HETE levels” and the “plasma SAA levels” value (LDLR null mice [3]) was “equally effective; also recorded: significantly decreased the levels”.
